# In publication PMC5338263, “GS-5734 and its parent nucleoside analog inhibit Filo-, Pneumo-, and Paramyxoviruses” (Scientific Reports, 2017):
# “Also recorded” adds a separate entry of the source. Read-outs that look alike come from different tables or passages of the source.
# Experiments:
# CCHF Rec. IbAr 10200 = assay: organism not typed; assay type: cell-based, Crimean Congo Hemorrhagic Fever virus
# NiV M-1999 = assay: microbe, parasite or virus in culture; assay type: cell-based, Nipah virus; details: Henipavirus nipahense, HeLa
# EBOV minigenome = assay: cells; assay type: cell-based, Ebola virus
# NiV minigenome = assay: cells; assay type: cell-based, Nipah virus
# Filo (filoviruses) = assay: organism not typed; assay type: cell-based; details: read-out: potency class (EC50)
# Pneumo = assay: Potency by virus family (Fig. 2), Pneumo; assay type: cell-based; details: read-out: potency class (EC50)
# Paramyxo = assay: Potency by virus family (Fig. 2), Paramyxo; assay type: cell-based; details: read-out: potency class (EC50)
# Arena = assay: Potency by virus family (Fig. 2), Arena; assay type: cell-based; details: read-out: potency class (EC50)
# HeV 1996 [1] = test system: HeV 1996
# RSV Rec. rgRSV224 (A2) [2] = test system: RSV Rec. rgRSV224 (A2)
# Corona (coronaviruses) = details: cited from earlier work
# Ebola virus [3] = details: in vivo; cited from earlier work
# Ebola virus [4] = details: human, in vivo; cited from earlier work
# [5] = test system: MARV Rec. Bat371-Gluc (Marburg virus); assay: in vitro; details: human
# NiV B-2004 (Nipah virus) [6] = assay: in vitro; details: human
# [7] = test system: hPIV3 Rec. JS-GFP (parainfluenza type 3 virus); assay: in vitro; details: human
# [8] = test system: MV Rec. rMV^EZGFP(3) (Measles virus); assay: in vitro; details: human
# [9] = test system: ANDV Chile 9717869 (Andes virus); assay: in vitro; details: human
# [10] = test system: LASV Josiah (Lassa virus); assay: in vitro; details: human
# [11] = test system: AHFV 200300001 (Alkhurma Hemorrhagic Fever virus); assay: in vitro; details: human
# [12] = test system: TBEV Hypr (Tick-borne Encephalitis virus); assay: in vitro; details: human
# [13] = test system: OHFV Bogoluvovska (Omsk Hemorrhagic Fever virus); assay: in vitro; details: human
# [14] = test system: reporter and wild-type filo-, pneumo-, and paramyxoviruses; assay: organism not typed; details: read-out: EC50 values (range over viruses)
# EBOV Rec. Mayinga-GFP = assay: microbe, parasite or virus in culture; details: Zaire ebolavirus, Huh-7
# HeV 1996 [15] = assay: microbe, parasite or virus in culture; details: Henipavirus hendraense, HeLa
# RSV Rec. rgRSV224 (A2) [16] = assay: microbe, parasite or virus in culture; details: human respiratory syncytial virus, HeLa
# ANDV Chile 9717869 = assay: microbe, parasite or virus in culture; details: Orthohantavirus andesense, Huh-7
# [17] = Cell viability assay (CellTiter-Glo 2.0), macrophages; details: human, uninfected peripheral blood macrophages (Mϕ)
# hMPV Rec. CAN97-83-GFP = assay: microbe, parasite or virus in culture; assay type: cell-based; details: human metapneumovirus, Vero
# EBOV wt Makona = assay: microbe, parasite or virus in culture; assay type: cell-based, Ebola virus; details: Zaire ebolavirus, Huh-7
# [18] = test system: recombinant reporter-expressing NiV, EBOV, and Marburg viruses (MARV); assay: microbe, parasite or virus in culture; assay type: cell-based; details: Zaire ebolavirus, read-out: EC50 values (range over viruses)
# MV EZ vaccine [19] = test system: MV EZ vaccine
# WNV = details: cited from earlier work
# SARS-CoV = details: cited from earlier work
# hPIV3 = details: cited from earlier work
# NiV B-2004 (Nipah virus) [20] = assay: in vitro; details: human; remark: listed apart in the source
# HeV 1996 (Hendra virus) = assay: in vitro; details: human
# [21] = test system: MV EZ vaccine (Measles virus); assay: in vitro; details: human
# MV EZ vaccine [22] = assay: microbe, parasite or virus in culture; details: Measles morbillivirus, HeLa
# [23] = Cell viability assay (CellTiter-Glo 2.0), 293T/17; details: human, uninfected 293T/17 cells
compound,measurement,setting,value
CCC(CC)COC(=O)[C@H](C)N[P@](=O)(OC[C@H]1O[C@@](C#N)(c2ccc3c(N)ncnn23)[C@H](O)[C@@H]1O)Oc1ccccc1 [GS-5734],EC50,CCHF Rec. IbAr 10200,minimal to no antiviral activity; also recorded: No inhibition
same,EC50,CCHF Rec. IbAr 10200; Huh-7,> 10000 nM
same,EC50,NiV M-1999,65.5 ± 16 nM
same,EC50,EBOV minigenome,sub-micromolar range
same,EC50,"EBOV minigenome; Zaire ebolavirus, Huh-7, 48 h",420 nM
same,EC50,NiV minigenome,sub-micromolar range
same,EC50,"NiV minigenome; Henipavirus nipahense, HeLa, 48 h",49 nM
same,EC50,Filo (filoviruses),< 100 nM
same,EC50,Pneumo,< 100 nM
same,EC50,Paramyxo,< 100 nM
same,EC50,Arena,> 4000 nM
same,EC50,EBOV Rec. Mayinga-Gluc,21 nM
same,EC50,NiV Rec. M-GFP2AM,29 nM
same,EC50,HeV 1996 [1],55 nM
same,EC50,RSV Rec. rgRSV224 (A2) [2],21 nM
same,EC50,LASV Josiah,4500 nM
same,EC50,AHFV 200300001,4200 nM
same,activity in cell-based antiviral assays,Corona (coronaviruses),shown activity
same,protection from lethal Ebola virus infection,Ebola virus [3],protected
same,survival of patients,Ebola virus [4],both of whom survived
same,selectivity ratio,[5],526
same,selectivity ratio,NiV B-2004 (Nipah virus) [6],259
same,selectivity ratio,[7],461
same,selectivity ratio,[8],224
same,selectivity ratio,[9],1.4
same,selectivity ratio,[10],2.2
same,selectivity ratio,[11],2.4
same,selectivity ratio,[12],4.8
same,selectivity ratio,[13],8.3
same,EC50,[14],3 to 790 nM
same,EC50,EBOV Rec. Mayinga-GFP,66 nM
same,EC90,EBOV Rec. Mayinga-GFP,203 nM
same,EC50,HeV 1996 [15],54.8 ± 1.3 nM
same,EC90,HeV 1996 [15],117 nM
same,EC50,RSV Rec. rgRSV224 (A2) [16],21.1 ± 1.1 nM
same,EC90,RSV Rec. rgRSV224 (A2) [16],59 nM
same,EC50,ANDV Chile 9717869,6950 ± 3100 nM
same,EC90,ANDV Chile 9717869,10100 nM
same,CC50 at 72 h,[17],2000 nM
N#C[C@@]1(c2ccc3c(N)ncnn23)O[C@H](CO)[C@@H](O)[C@H]1O [Nuc],EC50,hMPV Rec. CAN97-83-GFP,730 nM
same,EC90,hMPV Rec. CAN97-83-GFP,1700 nM
same,EC50,CCHF Rec. IbAr 10200,little to no antiviral activity; also recorded: No inhibition
same,EC50,CCHF Rec. IbAr 10200; Huh-7,> 50000 nM
same,EC50,EBOV wt Makona,1610 ± 420 nM
same,EC50,[18],1000 to 3000 nM
same,EC50,NiV Rec. M-GFP2AM,2200 nM
same,EC50,MV EZ vaccine [19],2000 nM
same,EC50,MuV IA 2006,9700 nM
same,antiviral activity (active or not),WNV,not
same,antiviral activity (active or not),SARS-CoV,shown to have activity
same,antiviral activity (active or not),hPIV3,shown to have activity
same,selectivity ratio,NiV B-2004 (Nipah virus) [20],60
same,selectivity ratio,HeV 1996 (Hendra virus),50
same,selectivity ratio,[7],98
same,selectivity ratio,[8],50
same,selectivity ratio,[21],25
same,EC50,EBOV Rec. Mayinga-GFP,1610 ± 120 nM
same,EC90,EBOV Rec. Mayinga-GFP,6700 nM
same,EC50,MV EZ vaccine [22],2010 nM
same,EC90,MV EZ vaccine [22],5100 nM
same,EC50,RSV Rec. rgRSV224 (A2) [16],630 nM
same,EC90,RSV Rec. rgRSV224 (A2) [16],2200 nM
same,CC50 at 72 h,[23],> 50000 nM
